Results reported in ChEMBL document CHEMBL1944551, “An integrated computational workflow for efficient and quantitative modeling of renin inhibitors” (Bioorg Med Chem, 2012).

Test: physchem
Conditions: octanol/buffer

Point of comparison: CNC(=O)OCc1ccc(Cl)c(CN(C(=O)[C@H]2CNCC(=O)N2c2ccc(CCCOc3cccc(Cl)c3)cc2)C2CC2)c1, logP 5.65. Against it:
- CNC(=O)OCc1ccc(Cl)c(CN(C(=O)[C@H]2CNCC(=O)N2c2ccc(CCCOc3c(F)ccc(F)c3F)cc2)C2CC2)c1 — within 0.2 log units, 5.48
- Cc1cc(Cl)c(OCCOc2ccc(N3C(=O)CNC[C@@H]3C(=O)N(C)Cc3ccccc3)cn2)c(Cl)c1 — lower, 3.76
- CNC(=O)OCCc1ccc(Cl)c(CN(C(=O)[C@H]2CNCC(=O)N2c2ccc(OCCCOCc3ccccc3OC)cc2)C2CC2)c1 — lower, 4.9
- O=C([C@H]1CNCC(=O)N1c1ccc(CCCOc2cccc(Cl)c2)cc1)N(Cc1ccccc1Cl)C1CC1 — higher, 5.9
- Cc1cc(Cl)c(OCCOc2ccc(N3C(=O)CNC[C@@H]3C(=O)NCc3ccccc3Cl)cc2)c(Cl)c1 — lower, 4.98
- COc1ccccc1COCCCOc1ccc(N2C(=O)CNC[C@@H]2C(=O)N(Cc2cc(CCNC(=O)CC(F)(F)F)ccc2Cl)C2CC2)cc1 — lower, 5.33
- O=C(NCc1ccccc1)[C@H]1CNCC(=O)N1c1ccc(CCCOc2cccc(Cl)c2)cc1 — lower, 4.46
- COc1ccccc1COCCCOc1ccc(N2C(=O)CNC[C@@H]2C(=O)N(Cc2cccc(Cl)c2)C2CC2)cc1 — lower, 5.1
- CC(=O)NCc1ccc(Cl)c(CN(C(=O)[C@H]2CNCC(=O)N2c2ccc(OCCOc3c(Cl)cc(C)cc3Cl)nc2)C2CC2)c1 — lower, 4.47
- CNC(=O)OCc1ccc(Cl)c(CN(C(=O)[C@H]2CNCC(=O)N2c2ccc(OCCOc3c(Cl)cc(C)cc3Cl)nc2)C2CC2)c1 — lower, 4.75
- Cc1cc(Cl)c(OCCOc2ccc(N3C(=O)CNC[C@@H]3C(=O)N(Cc3cc(CCNC4CC4)ccc3Cl)C3CC3)cn2)c(Cl)c1 — within 0.2 log units, 5.56
- CNC(=O)CCc1ccc(Cl)c(CN(C(=O)[C@H]2CNCC(=O)N2c2ccc(COC(=O)c3ccccc3)cc2)C2CC2)c1 — lower, 4.24
- CC(=O)NCCc1ccc(Cl)c(CN(C(=O)[C@H]2CNCC(=O)N2c2ccc(OCCOc3c(Cl)cc(C)cc3Cl)cc2)C2CC2)c1 — lower, 5.38
- O=C([C@H]1CNCC(=O)N1c1ccc(CCCOc2cccc(Cl)c2)cc1)N(Cc1cc(CNCC(F)F)ccc1Cl)C1CC1 — higher, 6.14
- Cc1cc(Cl)c(OCCOc2ccc(N3C(=O)CNC[C@@H]3C(=O)N(Cc3cc(CCNC(=O)COC(C)(C)C)ccc3Cl)C3CC3)cn2)c(Cl)c1 — within 0.2 log units, 5.56
- COCCCc1cc(CN(C(=O)[C@H]2CNCC(=O)N2c2ccc(CCCOc3cccc(Cl)c3)cc2)C2CC2)c(Cl)c[n+]1[O-] — within 0.2 log units, 5.51
- COc1ccccc1COCCCOc1ccc(N2C(=O)CNC[C@@H]2C(=O)N(Cc2cc(CNCCF)ccc2Cl)C2CC2)cc1 — lower, 4.99
- COc1ccccc1COCCCOc1ncc(N2C(=O)CNC[C@@H]2C(=O)N(Cc2cc(CNC3CC3)ccc2Cl)C2CC2)cn1 — lower, 3.52
- COC(=O)NCc1ccc(Cl)c(CN(C(=O)[C@H]2CNCC(=O)N2c2ccc(OCCOc3c(Cl)cc(C)cc3Cl)cc2)C2CC2)c1 — within 0.2 log units, 5.58
- CCC(=O)NCc1ccc(Cl)c(CN(C(=O)[C@H]2CNCC(=O)N2c2ccc(CCCOc3c(F)ccc(F)c3F)cc2)C2CC2)c1 — within 0.2 log units, 5.67
- CNC(=O)OCCc1ccc(Cl)c(CN(C(=O)[C@H]2CNCC(=O)N2c2ccc(OCCOc3c(Cl)cc(C)cc3Cl)nc2)C2CC2)c1 — lower, 4.84
- CC(=O)NCCc1ccc(Cl)c(CN(C(=O)[C@H]2CNCC(=O)N2c2ccc(CCCOc3cccc(Cl)c3)cc2)C2CC2)c1 — lower, 5.45
- CCNCc1ccc(Cl)c(CN(C(=O)[C@H]2CNCC(=O)N2c2ccc(CCCOc3c(F)ccc(F)c3F)cc2)C2CC2)c1 — higher, 5.89
- CCNCc1ccc(Cl)c(CN(C(=O)[C@H]2CNCC(=O)N2c2ccc(OCCOc3c(Cl)cc(C)cc3Cl)nc2)C2CC2)c1 — lower, 5.16
- Cc1cc(Cl)c(OCCOc2ccc(N3C(=O)CNC[C@@H]3C(=O)N(C)Cc3ccccc3Cl)cc2)c(Cl)c1 — lower, 5.18
- O=C([C@H]1CNCC(=O)N1c1ccc(CCCOc2cccc(Cl)c2)cc1)N(Cc1cc(CNC2CC2)ccc1Cl)C1CC1 — higher, 6.38
- O=C([C@H]1CNCC(=O)N1c1ccc(OCCCOCc2ccccc2)cc1)N(Cc1cc(CNC2CC2)ccc1Cl)C1CC1 — within 0.2 log units, 5.58
- COCCc1ccc(Cl)c(CN(C(=O)[C@H]2CNCC(=O)N2c2ccc(CCCOc3c(F)ccc(F)c3F)cc2)C2CC2)c1 — higher, 5.94
- CNC(=O)CCc1ccc(Cl)c(CN(C(=O)[C@H]2CNCC(=O)N2c2ccc(CCCOc3cccc(Cl)c3)cc2)C2CC2)c1 — lower, 5.42
- CNC(=O)OCc1ccc(Cl)c(CN(C(=O)[C@H]2CNCC(=O)N2c2ccc(OCCCOCc3ccccc3OC)cc2)C2CC2)c1 — lower, 4.81
- CNCCc1ccc(Cl)c(CN(C(=O)[C@H]2CNCC(=O)N2c2ccc(CCCOc3cccc(Cl)c3)cc2)C2CC2)c1 — within 0.2 log units, 5.81
- Cc1cc(Cl)c(OCCOc2ccc(N3C(=O)CNC[C@@H]3C(=O)N(C)Cc3ccccc3Cl)cn2)c(Cl)c1 — lower, 4.35
- COc1ccccc1COCCCOc1ncc(N2C(=O)CNC[C@@H]2C(=O)N(Cc2cc(CCNCC(F)F)ccc2Cl)C2CC2)cn1 — lower, 3.37
- CCNC(=O)Cc1ccc(Cl)c(CN(C(=O)[C@H]2CNCC(=O)N2c2ccc(CCCOc3c(F)ccc(F)c3F)cc2)C2CC2)c1 — within 0.2 log units, 5.49
- COc1ccccc1COCCCOc1ccc(N2C(=O)CNC[C@@H]2C(=O)N(Cc2cc(CCNC(=O)COC(C)(C)C)ccc2Cl)C2CC2)cc1 — within 0.2 log units, 5.61
- O=C(NCc1ccc(Cl)c(CN(C(=O)[C@H]2CNCC(=O)N2c2ccc(CCCOc3cccc(Cl)c3)cc2)C2CC2)c1)C1CC1 — within 0.2 log units, 5.72
- COCCCc1cc(CN(C(=O)[C@H]2CNCC(=O)N2c2ccc(CCCOc3cccc(Cl)c3)cc2)C2CC2)c(Cl)cn1 — lower, 5.29
- CN(CCc1ccccc1)C(=O)[C@H]1CNCC(=O)N1c1ccc(OCCCOCc2ccccc2)cc1 — lower, 3.95
- CCNC(=O)Cc1ccc(Cl)c(CN(C(=O)[C@H]2CNCC(=O)N2c2cnc(OCCCOCc3ccccc3OC)nc2)C2CC2)c1 — lower, 2.81
- CNCCc1ccc(Cl)c(CN(C(=O)[C@H]2CNCC(=O)N2c2ccc(OCCOc3c(Cl)cc(C)cc3Cl)nc2)C2CC2)c1 — lower, 4.91
- Cc1cc(Cl)c(OCCOc2ccc(N3C(=O)CNC[C@@H]3C(=O)N(Cc3cc(CCNC(=O)COC(C)(C)C)ccc3Cl)C3CC3)cc2)c(Cl)c1 — higher, 6.38
- O=C(OCc1ccc(N2C(=O)CNC[C@@H]2C(=O)NCc2ccccc2)cc1)c1ccccc1 — lower, 3.29
- O=C(NCc1ccccc1Cl)[C@H]1CNCC(=O)N1c1ccc(OCCCOCc2ccccc2)cc1 — lower, 4.26
- O=C(NCc1ccc(Cl)c(CN(C(=O)[C@H]2CNCC(=O)N2c2ccc(CCCOc3c(F)ccc(F)c3F)cc2)C2CC2)c1)C1CC1 — within 0.2 log units, 5.54
- COCCCc1cc(CN(C(=O)[C@H]2CNCC(=O)N2c2ccc(OCCCOCc3ccccc3OC)cc2)C2CC2)c(Cl)c[n+]1[O-] — lower, 4.66
- O=C([C@H]1CNCC(=O)N1c1ccc(CCCOc2c(F)ccc(F)c2F)cc1)N(Cc1cccc(Cl)c1Cl)C1CC1 — higher, 6.32
- CCNCc1ccc(Cl)c(CN(C(=O)[C@H]2CNCC(=O)N2c2ccc(OCCOc3c(Cl)cc(C)cc3Cl)cc2)C2CC2)c1 — higher, 5.99
- COc1ccccc1COCCCOc1ncc(N2C(=O)CNC[C@@H]2C(=O)N(Cc2cc(CNCC(F)F)ccc2Cl)C2CC2)cn1 — lower, 3.28
- COCCc1ccc(Cl)c(CN(C(=O)[C@H]2CNCC(=O)N2c2ccc(OCCOc3c(Cl)cc(C)cc3Cl)nc2)C2CC2)c1 — lower, 5.22
- CCNCCc1ccc(Cl)c(CN(C(=O)[C@H]2CNCC(=O)N2c2ccc(CCCOc3c(F)ccc(F)c3F)cc2)C2CC2)c1 — higher, 5.97
- COc1c(CN(C(=O)[C@H]2CNCC(=O)N2c2ccc(OCCCOCc3ccccc3)cc2)C2CC2)ccnc1C — lower, 3.49
